Experimental data from patent publication US20180021315A1, “METHODS OF TREATING HEARING DISORDERS” (Wayne State University, priority 2016, published 2018).
“Also recorded” adds a separate entry of the source.

Tests used:
TNF-α [1] = test: Blast-induced TNF-α protein levels in auditory brain regions (ELISA and Western blot); type: in vivo, rat
Method: The therapeutic drug used was 3,6′-dithiothalidomide, which was synthesized according to a published procedure to greater than 99.8% chemical purity (Baratz et al., 2011; W. Luo et al., 2008). The drug was freshly prepared prior to each study. 3,6′-dithiothalidomide was prepared as a suspension in 1% carboxymethyl cellulose to provide a final concentration of 28 or 56 mg/kg (0.1 mL/10 g and 0.1 mL/100 g body weight injection in mice and rats, respectively), and was administered intraperitoneally (i.p.). These concentrations of 3,6′-dithiothalidomide are equimolar to 25 and 50 mg/kg of thalidomide.
Each of the rats was subjected to blast exposure in the left ear using a shock tube (ORA Inc.) located at the Wayne State University Bioengineering Center. The blast exposure of each rat was performed under anesthesia with a mixture of air (1 liter/min) and isoflurane (5% v/v). The rat was placed on supportive netting with a metal surround and secured on a pole with its head facing the oncoming shockwave. During blast exposure, the rat's right ear was occluded with a silicone earplug (Mack's; McKeon Products, Warren, Mich.), followed by application of mineral oil to seal any remaining openings. The average energy under 10 kHz measured at 22 psi was equivalent to 150 kPa or 197.5 dB SPL. After blast exposure, each rat was transferred to a polycarbonate cage.
Two exposed groups received either 56 mg/kg 3,6′-dithiothalidomide i.p. or vehicle for two days starting on the same day of the blast exposure. Another two exposed groups received 56 mg/kg 3,6′-dithiothalidomide i.p. or vehicle treatment for five days starting on the day of the blast exposure. Two more exposed groups received 56 mg/kg 3,6′-dithiothalidomide i.p. or vehicle treatment for five days starting on the fifth day after blast exposure. On the last day of the drug/vehicle injection, brain samples were collected. ELISA and Western blot was performed to determine the effects of blast and 3,6′-dithiothalidomide treatment on TNF-α protein levels.

AC pyramidal neurons = test: Patch clamp recording of miniature synaptic currents in AC slices after blast exposure; type: in vivo, rat
Method: Two groups of 7 rats each were exposed to blast shockwaves as described above, and an additional group of 7 rats was sham-exposed. One of the exposed groups was administered 3,6′-dithiothalidomide for five days starting on the day of the exposure, and the other exposed group was administered vehicle. Brain slides were prepared from the AC of the rats 10-20 days after the blast exposure. Pyramidal neurons were recorded using the patch clamp method. Miniature synaptic currents were recorded to assess the functional states of the excitatory and inhibitory synaptic transmission. Neurons were filled with biocytin, which was stained with immunocytochemistry to reveal the morphology of the recorded neurons.

TNF-α [2] = test: TNF-α immunostaining densitometry of microglia and astrocytes after blast; type: in vivo, rat
From the text: FIGS. 23A and 23B depict densitometry measurements of ionized calcium-binding adapter molecule 1 (Iba-1) and TNF-α expression, respectively, as observed by fluorescence microscopy of immunohistochemistry-stained microglia. […] Error bars in FIGS. 23A-23B depict standard deviation.
(§1) FIGS. 24A and 24B depict densitometry measurements of glial fibrillary acidic protein (GFAP) and TNF-α expression, respectively, as observed by fluorescence microscopy of immunohistochemistry-stained AC astrocytes. […] The decrease in astrocyte TNF-α expression was relatively smaller than the decrease in microglial TNF-α expression (compare […] with FIG. 23B). […] Error bars in FIGS. 24A-24B depict standard deviation.

[3] = system: glial fibrillary acidic protein (GFAP); test: GFAP immunostaining densitometry of AC astrocytes after blast; type: in vivo, rat; details: immunostained AC astrocytes, FIG. 24B
From the text: as §1

C75BL6 mice = test: Noise-induced tinnitus, gap detection, 3,6′-dithiothalidomide; type: in vivo, mouse
Method: Tinnitus was assessed using the gap detection paradigm.
A group of C75BL6 mice underwent 4 days of gap detection testing. On the fifth day, the mice were exposed to 123-dB noise in their left ears for two hours, which was followed immediately by the administration of 3,6′-dithiothalidomide at a dose of 28 mg/kg. The drug was administered daily for five days. On day 10 post noise exposure, gap detection tests were resumed to test the animals' performance. Impaired gap detection compared to prenoise exposure performance is behavioral evidence of tinnitus.

## O=C1NC(=S)CCC1N1C(=O)c2ccccc2C1=S (stereo not drawn) [3,6′-dithiothalidomide]
TNF-α [1]; blast-exposed rat AC, 56 mg/kg i.p., FIG. 10
  TNF-α protein levels in AC, ELISA: reduced TNF-α protein levels
TNF-α [1]; blast-exposed rat DCN, 56 mg/kg i.p., FIG. 11
  TNF-α protein levels in DCN, ELISA: reduced TNF-α protein levels
TNF-α [1]; blast-exposed rat IC, 56 mg/kg i.p., FIG. 12
  TNF-α protein levels in IC, ELISA: reduced TNF-α protein levels
TNF-α [1]; blast-exposed rat IC, FIG. 12
  statistical significance of the reduction of TNF-α protein levels in IC: did not achieve statistical significance
TNF-α [1]; blast-exposed rats
  translational/posttranslational increase in the TNF-α protein level: cannot block such an increase
TNF-α [1]; group treated five days starting on the day of blast (5 Days), P<0.05
  reduction in TNF-α protein levels in DCN vs corresponding vehicle group: statistical significance
TNF-α [1]; group treated five days starting on the fifth day after blast (10 Days), P<0.05
  reduction in TNF-α protein levels in AC vs corresponding vehicle group: statistical significance
TNF-α [1]; rat AC and DCN, vs vehicle, P<0.05
  statistical significance of the reduction of TNF-α protein levels in AC and DCN: reached statistical significance; also recorded: significant reduction
TNF-α [1]; rat AI, DCN and IC, 56 mg/kg i.p., 2, 5 and 10 days after blast, FIGS. 10-13
  TNF-α protein levels after blast exposure: partially reduced TNF-α protein levels
AC pyramidal neurons; 56 mg/kg i.p., Kolmogorov-Smirnov Test p<0.001, FIG. 19
  cumulative distribution of mIPSC frequency (blast-induced shift to lower frequencies): reversed this effect
AC pyramidal neurons; blast-exposed rats, drug for five days from day of exposure, vs vehicle-treated, FIG. 17C
  mIPSCs in recording traces of auditory cortical neurons: less reduction in mIPSCs
AC pyramidal neurons; blast-exposed rats, 56 mg/kg i.p. daily, FIG. 18B
  mIPSC frequency (blast-induced reduction): completely abolished the blast-induced reduction
AC pyramidal neurons; blast-exposed rats, 56 mg/kg i.p., relative to sham-blast controls, FIG. 18A
  mIPSC amplitude: did not significantly change mIPSC amplitudes
TNF-α [2]; immunostained AC astrocytes, FIG. 24A
  blast-induced astrocyte TNF-α expression: partially blocked
TNF-α [2]; immunostained microglia, FIG. 23B
  blast-induced microglial TNF-α expression: is blocked
[3]
  blast-induced astrocyte GFAP expression: is blocked
C75BL6 mice; 28 mg/kg, FIG. 25
  noise-induced tinnitus (startle-response ratio): prevents noise-induced tinnitus in mice
C75BL6 mice; 123-dB noise 2 h, 28 mg/kg daily for five days, tested day 10 post exposure
  gap detection performance after noise exposure: not significantly altered
